The source of these data is patent US20250304535A1, “KAT6 Inhibitors” (BeiGene Switzerland GmbH, priority 2024, published 2025).

By IC50 is commonly meant the concentration needed to halve the response being measured. A word on the pIC50: it is −log10 of the IC50, conventionally taken in molar units.

pIC50: −log10 of the molar value.

Assay [1] relates to histone H3K23 acetylation in U-2 OS cells. As to the kind of experiment: Histone H3 lysine 23 acetylation assay in U-2 OS cells (high content analysis). The note with it: Homo sapiens, U2OS, 24 hrs exposure, H3K23ac level. In kind it is cell-based. On the procedure: Assay B: Histone H3 lysine 23 Acetylation Assay
Compounds were tested for their capacity to suppress the histone H3K23 acetylation in the following high content analysis assay.
The cell line U-2 OS (ATCC HTB-96) was seeded at a density of 2000 cells per well in black 384 well cell culture/imaging microplates in 45 μl McCoy's 5A medium with […]. After overnight incubation in 37° C., 5% CO2 incubator, cells were then treated with a 9-point dilution series of compounds and a blank control group with medium containing 0.1% DMSO.
Following a 24 hrs exposure to the compounds, the cells were fixed with 4% immunohistochemical fixative for 20 mins at room temperature, washed with DPBS with 2% fetal bovine serum, and permed with Perm Buffer III for 30 min on ice, washed with DPBS with 2% fetal bovine serum. Then the cells were blocked with Odyssey blocking buffer containing 0.1% Tween 20. 20 ul Anti-Histone H3 (acetyl K23) antibody (Abcam, ab177275) in odyssey blocking buffer containing 0.1% Tween20 was added and incubated overnight at 4° C. After incubation, the cells were washed for 3 times and a secondary antibody Anti-rabbit IgG (H+L), F(ab′)2 Fragment (Alexa Fluor® 647 Conjugate) (CST, 4414S) were added into cells for one hour. The cells were washed and 1 ug/ml DAPI (Thermo, 62248) were added for 10 min. Then cells were washed and read on the PerkinElmer Operetta CLS high content analysis system. The nuclei were identified by DAPI and H3K23ac level was calculated from the Alexa Fluor 647 intensity in the nuclei. Inhibition rate of H3K23ac was calculated as the mean intensity of cells per well relative to blank controls on the same plate.

The target in assay [2] is Recombinant human KAT6A protein (497-780) (Homo sapiens (Human), UniProt Q92794). Kind of assay: KAT6A biochemical TR-FRET assay. To be noted: histone H4 peptide 2000 nM, AcCoA 300 nM, enzyme 5 nM. On the procedure:
Enzymatic reactions of KAT6A and KAT6B were performed using Fluorescence Resonance Energy Transfer (TR-FRET) assay, which measures acetylation of a synthetic, biotinylated histone-H4 peptide by the KAT6A and KAT6B enzymes. Recombinant human KAT6A protein (497-780) were expressed in BL21 cell using an E. coli expression system. Recombinant human KAT6B protein (657-1069) was expressed in sf9 cell using a baculovirus expression system. […] Acetyl coenzyme A was purchased from Sigma-Aldrich (#A-2056).
Testing for the inhibition activities of various compounds disclosed herein was carried out at room temperature in assay buffer containing 100 mM Tris/HCl Ph7.8, 15 mM NaCl, 0.01% chicken egg white albumin, 1 mM DTT and 0.01% Tween-20. Compounds in DMSO were dispensed into wells of a black, 384-well plate (Corning 4514) using ECHO555 (Beckman). The final concentration ranges of the test compounds were 0.0625-1,000 nM, 0.625-10,000 nM, or 0.313-5,000 nM. Five μL of KAT6A or KAT6B enzyme solution were added to wells, and the plate was incubated for 1 hour at room temperature (rt). After incubation for 1 hour at rt, 5 μL H4 and AcCoA substrate solutions were added to the wells to initiate reaction, and the plate was incubated. After 2 hours reaction, 5 μL detection reagent were added to the wells, and the plate was incubated for 2 hours. After two hours incubation, detection reagent containing 5 nM Anti-histone H4 antibody (ABCAM #ab177790), 100 μM formic acid (sigma #06473-100ML), 0.1 test/μL streptavidin-XL665 (PerkinElmer #610SAXLG), 0.05 test/μL PAb anti-rabbit IgG-Eu (PerkinElmer μ61PARKLA) was added to the wells. TR-FRET was measured on a microplate reader (PHERAstar FSX, BMG labtech). […] In Table 6, I≤5 nM, 5 nM<II≤50 nM.

In assay [3] the target is Recombinant human KAT6B protein (657-1069) (Homo sapiens (Human), UniProt Q8WYB5). Kind of assay: KAT6B biochemical TR-FRET assay. The note with it: histone H4 peptide 1000 nM, AcCoA 100 nM, enzyme 5 nM. On the procedure:
Enzymatic reactions of KAT6A and KAT6B were performed using Fluorescence Resonance Energy Transfer (TR-FRET) assay, which measures acetylation of a synthetic, biotinylated histone-H4 peptide by the KAT6A and KAT6B enzymes. Recombinant human KAT6A protein (497-780) were expressed in BL21 cell using an E. coli expression system. Recombinant human KAT6B protein (657-1069) was expressed in sf9 cell using a baculovirus expression system. Histone H4 peptide (SEQ ID NO: 1—[…]-GGK-Biotin), which was used as substrate, was synthesized by GL Biochem, Shanghai, China. Acetyl coenzyme A was purchased from Sigma-Aldrich (#A-2056).
Testing for the inhibition activities of various compounds disclosed herein was carried out at room temperature in assay buffer containing 100 mM Tris/HCl Ph7.8, 15 mM NaCl, 0.01% chicken egg white albumin, 1 mM DTT and 0.01% Tween-20. Compounds in DMSO were dispensed into wells of a black, 384-well plate (Corning 4514) using ECHO555 (Beckman). The final concentration ranges of the test compounds were 0.0625-1,000 nM, 0.625-10,000 nM, or 0.313-5,000 nM. Five μL of KAT6A or KAT6B enzyme solution were added to wells, and the plate was incubated for 1 hour at room temperature (rt). After incubation for 1 hour at rt, 5 μL H4 and AcCoA substrate solutions were added to the wells to initiate reaction, and the plate was incubated. After 2 hours reaction, 5 μL detection reagent were added to the wells, and the plate was incubated for 2 hours. After two hours incubation, detection reagent containing 5 nM Anti-histone H4 antibody (ABCAM #ab177790), 100 μM formic acid (sigma #06473-100ML), 0.1 test/μL streptavidin-XL665 (PerkinElmer #610SAXLG), 0.05 test/μL PAb anti-rabbit IgG-Eu (PerkinElmer μ61PARKLA) was added to the wells. TR-FRET was measured on a microplate reader (PHERAstar FSX, BMG labtech). The IC50s were calculated based on inhibition of enzyme activity in the presence of increasing concentrations of test compounds, and the results are shown in Table 6. In Table 6, I≤5 nM, 5 nM<II≤50 nM.
A general note: Time-resolved FRET reads energy transfer from a long-lived donor to a nearby acceptor.

Sequence of Recombinant human KAT6B protein (657-1069) (Q8WYB5 657-1069): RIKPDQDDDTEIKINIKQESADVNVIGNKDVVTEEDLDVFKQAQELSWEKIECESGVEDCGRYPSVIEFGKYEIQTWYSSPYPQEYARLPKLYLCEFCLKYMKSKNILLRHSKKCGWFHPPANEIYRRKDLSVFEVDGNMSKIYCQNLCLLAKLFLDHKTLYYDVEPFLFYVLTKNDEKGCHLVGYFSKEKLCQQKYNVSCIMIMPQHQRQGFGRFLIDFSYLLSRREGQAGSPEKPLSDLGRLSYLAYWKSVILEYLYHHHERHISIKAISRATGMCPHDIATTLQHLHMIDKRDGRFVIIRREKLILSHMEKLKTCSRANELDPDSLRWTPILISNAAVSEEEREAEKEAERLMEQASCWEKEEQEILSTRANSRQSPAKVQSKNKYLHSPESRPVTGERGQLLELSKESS
Sequence of Recombinant human KAT6A protein (497-780) (Q92794 497-780): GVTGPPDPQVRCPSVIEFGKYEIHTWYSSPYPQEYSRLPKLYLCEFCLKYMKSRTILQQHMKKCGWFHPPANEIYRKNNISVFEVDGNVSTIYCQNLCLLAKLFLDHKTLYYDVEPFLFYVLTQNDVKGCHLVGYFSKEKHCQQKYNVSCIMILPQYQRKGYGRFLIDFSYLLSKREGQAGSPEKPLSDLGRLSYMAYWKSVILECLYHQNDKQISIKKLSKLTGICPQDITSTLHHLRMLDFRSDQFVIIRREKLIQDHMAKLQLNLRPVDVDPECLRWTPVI

Consider `COc1ccc(C(C)(C)C)cc1S(=O)(=O)NC(=O)c1ccc(Cc2ccccn2)c(C)n1` [Example C35, N-((5-(tert-butyl)-2-methoxyphenyl)sulfonyl)-6-methyl-5-(pyridin-2-ylmethyl)picolinamide], for which the IC50 in assay [1] was at most 10 nM. For the same compound, the pIC50 in assay [2] and in assay [3] was at least 8.30 throughout.
For the compound `COc1cnc(C(C)(C)C)cc1S(=O)(=O)NC(=O)c1ccc(Cn2cccn2)c(OC)n1` [Example C72, 5-((1H-pyrazol-1-yl)methyl)-N-((2-(tert-butyl)-5-methoxypyridin-4-yl)sulfonyl)-6-methoxy-picolinamide], in assay [1], the IC50 was at most 10 nM. Besides, the pIC50 in assay [2] and in assay [3] was at least 8.30 throughout.
In the case of `COc1cc(C(=O)NS(=O)(=O)c2nc(C(C)(C)C)ccc2OC)ccc1Cn1ccc(C)n1` [Example C33, N-((6-(tert-butyl)-3-methoxypyridin-2-yl)sulfonyl)-3-methoxy-4-((3-methyl-1H-pyrazol-1-yl)methyl)benzamide], in assay [1], the IC50 is at most 10 nM. The pIC50 in assay [2] and in assay [3] was at least 8.30 in each case.
In the case of `CCOc1nc(C(=O)NS(=O)(=O)c2nc(C(C)(C)C)ccc2OC)ccc1Cn1cccn1` [Example C34, 5-((1H-pyrazol-1-yl)methyl)-N-((6-(tert-butyl)-3-methoxypyridin-2-yl)sulfonyl)-6-ethoxy-picolinamide], in assay [1], the IC50 is at most 10 nM. The pIC50 in assay [2] and in assay [3] was at least 8.30 in each case.
`COc1ccc2c(c1S(=O)(=O)NC(=O)c1ccc(Cn3cccn3)c(C3CC3)n1)OC(C)(C)C2` [Example C46, 5-((1H-pyrazol-1-yl)methyl)-6-cyclopropyl-N-((6-methoxy-2,2-dimethyl-2,3-dihydrobenzofuran-7-yl)sulfonyl)picolinamide] gave an IC50 in assay [1] of at most 10 nM. Moreover, the pIC50 in assay [2] and in assay [3] was at least 8.30 throughout.
For the compound `COc1ccc(C(C)(C)C)nc1S(=O)(=O)NC(=O)c1ccc(Cn2cccn2)c(F)c1` [Example C24, 4-((1H-pyrazol-1-yl)methyl)-N-((6-(tert-butyl)-3-methoxypyridin-2-yl)sulfonyl)-3-fluorobenzamide], in assay [1], the half-inhibitory concentration (IC50) lay within 10 to 100 nM. The pIC50 in assay [2] and in assay [3] was at least 8.30 each time.
In assay [1], `COc1ccc2c(c1S(=O)(=O)NC(=O)c1ccc(Cn3cccn3)c(OC)n1)OCCC2(C)C` [Example C39, 5-((1H-pyrazol-1-yl)methyl)-6-methoxy-N-((7-methoxy-4,4-dimethylchroman-8-yl)sulfonyl)picolinamide] registered a half-inhibitory concentration (IC50) of at most 10 nM. In addition, the negative-log IC50 (pIC50) in assay [2] and in assay [3] was at least 8.30 in each case.
In the case of `CCc1cc(C(=O)NS(=O)(=O)c2nc(C(C)(C)C)ccc2OC)ccc1Cn1cccn1` [Example C23, 4-((1H-pyrazol-1-yl)methyl)-N-((6-(tert-butyl)-3-methoxypyridin-2-yl)sulfonyl)-3-ethylbenzamide], the IC50 in assay [1] was at most 10 nM. For the same compound, the pIC50 in assay [2] and in assay [3] was at least 8.30 each time.
With `COc1ccc(C(C)(C)C)cc1S(=O)(=O)NC(=O)c1ccc(Cn2cccn2)c(-c2ccco2)c1` [Example C5, 4-((1H-pyrazol-1-yl)methyl)-N-((5-(tert-butyl)-2-methoxyphenyl)sulfonyl)-3-(furan-2-yl)benzamide], the IC50 in assay [1] was at most 10 nM. Moreover, the negative logarithm of the IC50 (pIC50) in assay [2] and in assay [3] was at least 8.30 throughout.
In turn, `COc1ccc(C(C)(C)C)cc1S(=O)(=O)NC(=O)c1ccc(Cn2cccn2)c(C)c1` [Example C3, 4-((1H-pyrazol-1-yl)methyl)-N-((5-(tert-butyl)-2-methoxyphenyl)sulfonyl)-3-methylbenzamide] returned an IC50 in assay [1] of at most 10 nM. Moreover, the pIC50 in assay [2] and in assay [3] was at least 8.30 throughout.
`[2H]C([2H])([2H])Oc1nc(C(=O)NS(=O)(=O)c2c(OC)ccc3c2OCC3(C)C)ccc1Cn1cccn1` [Example C64, 5-((1H-pyrazol-1-yl)methyl)-6-(methoxy-d3)-N-((6-methoxy-3,3-dimethyl-2,3-dihydrobenzofuran-7-yl)sulfonyl) picolinamide] displayed an IC50 in assay [1] of at most 10 nM. Also, the negative-log IC50 (pIC50) in assay [2] and in assay [3] was at least 8.30 in each case.
Take `[2H]C([2H])([2H])Oc1ccc(C(C)(C)C)nc1S(=O)(=O)NC(=O)c1ccc(Cn2cccn2)c(OC)n1` [Example C66, 5-((1H-pyrazol-1-yl)methyl)-N-((6-(tert-butyl)-3-(methoxy-d3)pyridin-2-yl)sulfonyl)-6-methoxy-picolinamide]: the 50% inhibitory concentration (IC50) in assay [1] was at most 10 nM. Besides, the pIC50 in assay [2] and in assay [3] was at least 8.30 in each case.
For `[2H]C([2H])([2H])Oc1nc(C(=O)NS(=O)(=O)c2nc(C(C)(C)C)ccc2OC)ccc1Cn1cccn1` [Example C63, 5-((1H-pyrazol-1-yl)methyl)-N-((6-(tert-butyl)-3-methoxypyridin-2-yl)sulfonyl)-6-(methoxy-d3)picolinamide], the half-maximal inhibitory concentration (IC50) in assay [1] is at most 10 nM. The pIC50 in assay [2] and in assay [3] was at least 8.30 in each case.
In assay [1], `COc1ccc2c(c1S(=O)(=O)NC(=O)c1ccc(Cn3cccn3)c(OC)n1)OC(C)(C)C2` [Example C42, 5-((1H-pyrazol-1-yl)methyl)-6-methoxy-N-((6-methoxy-2,2-dimethyl-2,3-dihydrobenzofuran-7-yl)sulfonyl)picolinamide] had an IC50 of at most 10 nM. In addition, the negative logarithm of the IC50 (pIC50) in assay [2] and in assay [3] was at least 8.30 each time.
Regarding `CCc1cc(C(=O)NS(=O)(=O)c2c(OC)ccc3c2OCC3(C)C)ccc1Cn1cccn1` [Example C51, 4-((1H-pyrazol-1-yl)methyl)-3-ethyl-N-((6-methoxy-3,3-dimethyl-2,3-dihydrobenzofuran-7-yl)sulfonyl)benzamide], in assay [1], the concentration for half-maximal inhibition (IC50) was at most 10 nM. Further, the pIC50 in assay [2] and in assay [3] was at least 8.30 in each case.
